Where only a bound is given, the exact number is not on record here.

The record followed here is patent US20260334439A1, “BCAT2 INHIBITORS” (Agios Pharmaceuticals, Inc., priority 2023, published 2026).

The target of this assay is T1, BCAT2 (Homo sapiens, UniProt O15382).
T1 sequence (O15382 28-392): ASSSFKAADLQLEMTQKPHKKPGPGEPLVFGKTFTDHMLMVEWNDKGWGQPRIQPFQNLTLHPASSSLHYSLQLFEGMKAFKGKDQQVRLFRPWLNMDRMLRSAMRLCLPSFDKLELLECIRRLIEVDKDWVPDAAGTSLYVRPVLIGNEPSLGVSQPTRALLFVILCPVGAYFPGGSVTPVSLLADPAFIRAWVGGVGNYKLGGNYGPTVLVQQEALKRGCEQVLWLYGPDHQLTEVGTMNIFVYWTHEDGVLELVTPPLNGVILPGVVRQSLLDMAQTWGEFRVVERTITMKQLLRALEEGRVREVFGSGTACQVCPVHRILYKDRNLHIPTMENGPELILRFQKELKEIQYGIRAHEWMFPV
Kind of assay: BCAT2 in vitro enzyme inhibition assay (hBCAT2, glutamate dehydrogenase/diaphorase/resazurin coupled fluorescence read). To be noted: hBCAT2, 1 h preincubation at 25° C., one hour reaction; average where tested multiple times. Type of assay: biochemical. The method, then: • 2×Buffer: 200 mM Tris pH 8.0, 300 mM NaCl, 0.1% BSA • 1.67×hBCAT2 Enzyme Mix: 0.33 μg/mL hBCAT2, 1× Buffer • 2.5×Substrate Mix: 460 µM L-leucine, 420 µM α-KetoGlutarate, 10 U/mL glutamate dehydrogenase, 10 mM NAD, […] diaphorase, […] Resazurin
BCAT2 enzyme stock solution was diluted to prepare a 1.67×hBCAT2 Enzyme Mix. 1 μL of test compound was first added to the reaction wells followed by 30 μL of 1.67×hBCAT2 Enzyme Mix and incubated at room temperature (25° C.) for one hour. Meanwhile the Substrate Mix was prepared. The reaction was initiated by the addition of 20 μL of the 2.5×Substrate Mix, bringing the final reaction mix of all components to 1×. Reactions were quenched after one hour by the addition of 25 μL of 6% SDS and reaction progress was measured via fluorescence read (Ex 540/Em 590).
Test compounds were prepared at 50×final concentration in DMSO, 1 to 3 dilutions were made for 10 points. The compounds were added to the assay as a 1 to 50 dilution (1 μL in 50 μL) to yield a top assay final concentration of 100 μM, decreasing 3-fold for 10 points. Each compound dilution series test also included an assay max (1 μL DMSO Added in lieu of compound, Full Reaction Components Included) and Min (1 μL DMSO Added in lieu of compound, 30 μl of 1.67×hBCAT2 Enzyme Mix replated by 30 μL of 1×Buffer). All tests were performed in technical duplicate.
Where a compound was tested multiple times, the average value of the tests is reported.
For orientation: The colour change of resazurin is a common sign of viable cells or microbes.

Usually IC50 stands for the concentration that inhibits the measured activity by half. High values mean weaker potency, low ones greater potency. Compound `NCCOc1ccc(Cl)cc1C(=O)N[C@H]1CCC[C@@H](n2c(-c3ccccc3F)nc3cnc(-c4nc[nH]n4)cc32)C1` [Example 42, 2-(2-aminoethoxy)-5-chloro-N-((1S,3R)-3-(2-(2-fluorophenyl)-6-(1H-1,2,4-triazol-3-yl)-1H-imidazo[4,5-c]pyridin-1-yl)cyclohexyl)benzamide] yielded an IC50 of less than 100 nM.
The result for `O=C(N[C@H]1CCC[C@@H](n2c(-c3ncccc3OC(F)F)nc3cnc(-c4nc[nH]n4)cc32)C1)c1cc(F)ccc1F` [compound 61] reads less than 100 nM; that for `COc1ccc(Cl)cc1C(=O)N[C@H]1C[C@H](O)C[C@@H](n2c(CC(C)C)nc3cnc(-c4ncccn4)cc32)C1` [Example 111, 5-chloro-N-((1R,3S,5S)-3-hydroxy-5-(2-isobutyl-6-(pyrimidin-2-yl)-1H-imidazo[4,5-c]pyridin-1-yl)cyclohexyl)-2-methoxybenzamide], less than 100 nM; that for `CN1C[C@@H](NC(=O)c2cc(Cl)ccn2)C[C@@H](n2c(-c3ccccc3OCCO)nc3cnc(-c4ncco4)cc32)C1` [Example 160, 4-chloro-N-((3S,5R)-5-(2-(2-(2-hydroxyethoxy)phenyl)-6-(oxazol-2-yl)-1H-imidazo[4,5-c]pyridin-1-yl)-1-methylpiperidin-3-yl)picolinamide], more than 1000 nM.
With `O=C(N[C@H]1CCC[C@@H](n2c(-c3ccccc3OCCO)nc3ccc(-c4nc[nH]n4)cc32)C1)c1cc(F)ccc1F` [Example 228, 2,5-difluoro-N-((1S,3R)-3-(2-(2-(2-hydroxyethoxy)phenyl)-6-(1H-1,2,4-triazol-3-yl)-1H-benzo[d]imidazol-1-yl)cyclo-hexyl)benzamide], the IC50 was less than 100 nM.
The compound `CS(=O)(=O)c1ccc(Cl)cc1C(=O)N[C@H]1CCC[C@@H](n2c(-c3ccccc3F)nc3cnc(-c4nc[nH]n4)cc32)C1` [Example 12, 5-chloro-N-((1S,3R)-3-(2-(2-fluorophenyl)-6-(1H-1,2,4-triazol-3-yl)-1H-imidazo[4,5-c]pyridin-1-yl)cyclohexyl)-2-(methylsulfonyl)benzamide] gave a half-inhibitory concentration (IC50) of more than 1000 nM.
The compound `N#Cc1ccccc1-c1nc2cnc(-c3nc(C(F)(F)F)co3)cc2n1[C@@H]1CCC[C@H](NC(=O)c2cc(F)ccn2)C1` [Example 99, N-((1S,3R)-3-(2-(2-cyanophenyl)-6-(4-(trifluoromethyl)oxazol-2-yl)-1H-imidazo[4,5-c]pyridin-1-yl)cyclohexyl)-4-fluoropicolinamide] showed an IC50 of less than 100 nM.
`Nc1ccc(Cl)cc1C(=O)N[C@H]1CCC[C@@H](n2c(-c3ccccc3F)nc3cnc(-c4nc[nH]n4)cc32)C1` [Example 41, 2-amino-5-chloro-N-((1S,3R)-3-(2-(2-fluorophenyl)-6-(1H-1,2,4-triazol-3-yl)-1H-imidazo[4,5-c]pyridin-1-yl)cyclohexyl)benzamide] had an IC50 of 100 to 500 nM.
The result for `CN1C[C@H](NC(=O)c2cc(Cl)ccn2)C[C@H](n2c(-c3ccccc3OCCO)nc3cnc(-c4ncccn4)cc32)C1` [Example 164, 4-chloro-N-((3R,5S)-5-(2-(2-(2-hydroxyethoxy)phenyl)-6-(pyrimidin-2-yl)-1H-imidazo[4,5-c]pyridin-1-yl)-1-methylpiperidin-3-yl)picolinamide] reads less than 100 nM; that for `O=C(N[C@@H]1C[C@H](n2c(-c3ccccc3OCCO)nc3ccc(-c4nc[nH]n4)cc32)CC(F)(F)C1)c1cc(F)ccn1` [Example 231, N-((1R,5S)-3,3-difluoro-5-(2-(2-(2-hydroxyethoxy)phenyl)-6-(1H-1,2,4-triazol-3-yl)-1H-benzo[d]imidazol-1-yl)cyclohexyl)-4-fluoropicolinamide], less than 100 nM; that for `O=C(N[C@H]1CCC[C@@H](n2c(-c3ccccc3OC3CCOC3)nc3cnc(-c4nc[nH]n4)cc32)C1)c1cc(Cl)ccn1` (stereo partly drawn) [Example 87, 4-chloro-N-((1S,3R)-3-(2-(2-((tetrahydrofuran-3-yl)oxy)phenyl)-6-(1H-1,2,4-triazol-3-yl)-1H-imidazo[4,5-c]pyridin-1-yl)cyclohexyl)picolinamide], more than 1000 nM.
With `CN1C[C@H](NC(=O)c2cc(Cl)ccn2)C[C@H](n2c(-c3ccccc3OCCO)nc3ccc(-c4ncccn4)cc32)C1` [Example 234, 4-chloro-N-((3R,5S)-5-(2-(2-(2-hydroxyethoxy)phenyl)-6-(pyr-imidin-2-yl)-1H-benzo[d]imid-azol-1-yl)-1-methylpiperidin-3-yl)picolinamide], the IC50 is less than 100 nM.
The compound `CN1C[C@@H](NC(=O)c2cc(Cl)ccn2)C[C@@H](n2c(-c3ccccc3OCCO)nc3cnc(-c4ncccn4)cc32)C1` [Example 165, 4-chloro-N-((3S,5R)-5-(2-(2-(2-hydroxyethoxy)phenyl)-6-(pyrimidin-2-yl)-1H-imidazo[4,5-c]pyridin-1-yl)-1-methylpiperidin-3-yl)picolinamide] had an IC50 of less than 100 nM.
The compound `O=C(N[C@H]1CCC[C@@H](n2c(-c3ccccc3F)nc3cnc(-c4nc[nH]n4)cc32)[C@@H]1O)c1cc(Cl)ccn1` [Example 103, 4-chloro-N-((1S,2R,3R)-3-(2-(2-fluorophenyl)-6-(1H-1,2,4-triazol-3-yl)-1H-imidazo[4,5-c]pyridin-1-yl)-2-hydroxycyclohexyl)picolinamide] came in with an IC50 of less than 100 nM.
As for `CCNCc1nc2cnc(-c3nc[nH]n3)cc2n1[C@@H]1CCC[C@H](NC(=O)c2cc(Cl)ccn2)C1` [Example 38, 4-chloro-N-((1S,3R)-3-(2-((ethylamino)methyl)-6-(1H-1,2,4-triazol-3-yl)-1H-imidazo[4,5-c]pyridin-1-yl)cyclohexyl)picolinamide], the IC50 was more than 1000 nM.
`N#Cc1ccccc1-c1nc2cnc(-c3nc[nH]n3)cc2n1[C@@H]1CCC[C@H](N2COc3ccc(Cl)cc3C2=O)C1` [Example 203, 2-(1-((1R,3S)-3-(6-chloro-4-oxo-2H-benzo[e][1,3]oxazin-3(4H)-yl)cyclohexyl)-6-(1H-1,2,4-triazol-3-yl)-1H-imidazo[4,5-c]pyridin-2-yl)benzonitrile]: the IC50 is less than 100 nM.
Take `CN1C[C@@H](NC(=O)c2cc(Cl)ccc2OCCO)C[C@@H](n2c(-c3ccccc3F)nc3cnc(-c4nc[nH]n4)cc32)C1` [Example 151, 5-chloro-N-((3S,5R)-5-(2-(2-fluorophenyl)-6-(1H-1,2,4-triazol-3-yl)-1H-imidazo[4,5-c]pyridin-1-yl)-1-methylpiperidin-3-yl)-2-(2-hydroxyethoxy)benzamide]: the IC50 fell in the range of 100 to 500 nM.
`O=C(N[C@H]1CCC[C@@H](n2c(-c3ncccc3OC(F)F)nc3cnc(-c4nc[nH]n4)cc32)C1)c1cc(Cl)ccn1` [compound 62] came in with an IC50 of less than 100 nM.
In turn, `O=C(N[C@H]1CCC[C@@H](n2c(-c3ccccc3F)nc3cnc(N4CCCC4)cc32)C1)c1cc(Cl)ccn1` [Example 28, 4-chloro-N-((1S,3R)-3-(2-(2-fluorophenyl)-6-(pyrrolidin-1-yl)-1H-imidazo[4,5-c]pyridin-1-yl)cyclohexyl)picolinamide] yielded an IC50 of 100 to 500 nM.
The result for `CN1C[C@H](NC(=O)c2cc(F)ccc2F)C[C@H](n2c(-c3ccccc3OCCO)nc3cnc(-c4ncco4)cc32)C1` [Example 158, 2,5-difluoro-N-((3R,5S)-5-(2-(2-(2-hydroxyethoxy)phenyl)-6-(oxazol-2-yl)-1H-imidazo[4,5-c]pyridin-1-yl)-1-methylpiperidin-3-yl)benzamide] reads less than 100 nM.
`CC(Oc1ccccc1-c1nc2cnc(-c3nc[nH]n3)cc2n1[C@@H]1CCC[C@H](NC(=O)c2cc(Cl)ccn2)C1)C(F)(F)F` (stereo partly drawn) [Example 91, N-((1S,3R)-3-(6-(1H-1,2,4-triazol-3-yl)-2-(2-((1,1,1-trifluoropropan-2-yl)oxy)phenyl)-1H-imidazo[4,5-c]pyridin-1-yl)cyclohexyl)-4-chloropicolinamide] came in with an IC50 of more than 1000 nM.
As for `CO[C@@H]1C[C@@H](NC(=O)c2cc(F)ccn2)C[C@@H](n2c(-c3ccccc3F)nc3ccc(-c4nc[nH]n4)cc32)C1` [Example 220, 4-fluoro-N-((1R,3S,5S)-3-(2-(2-fluorophenyl)-6-(1H-1,2,4-triazol-3-yl)-1H-benzo[d]imid-azol-1-yl)-5-methoxycyclohex-yl)picolinamide], the concentration for half-maximal inhibition (IC50) is more than 1000 nM.
`O=C(N[C@H]1CCC[C@@H](n2c(-c3ccccc3F)nc3cnc(-c4nc[nH]n4)cc32)C1)c1cc(Cl)ccc1OC(F)F` [compound 50] displayed an IC50 of less than 100 nM.
